# Reference: EP4711372A1, “CRYSTAL FORM OF HETEROCYCLIC COMPOUND, SALT THEREOF, CRYSTAL FORM OF SALT THEREOF, AND USE” (Hubei Bio-Pharmaceutical Industrial Technological Institute …, priority 2023, dated 2024)
# Assays:
# [1] = Pharmacokinetics in mice (oral gavage); assay type: in vivo; conditions: mouse, plasma, male CD-1 mice, 10 mg/kg
# Experimental: The pharmacokinetic properties of the compounds obtained in Example 1 in mice were determined with reference to the following experimental methods.
# Three male CD-1 mice were administered by oral gavage at a dose of 10 mg/kg, and the vehicle was 5% DMSO + 10% Solutol + 85% Saline. The mice were fasted overnight, and the time points of blood collection were before administration and at 15 minutes, 30 minutes, 1 hour, 2 hours, 4 hours, 8 hours, and 24 hours after administration. Blood samples were centrifuged at 6,800 g for 6 minutes at 2 to 8°C, and plasma was collected and stored at - 80°C. 10 µL of plasma at each time point was taken and added with 200 µL of methanol containing 100 ng/mL internal standard. The mixture was vortexed, mixed well, and centrifuged at 18,000 g for 7 minutes at 2 to 8°C. 200 µL of the mixture was transferred to a 96-well injection plate for LC-MS/MS quantitative analysis. The main pharmacokinetic parameters were analyzed using WinNonlin 7.0 software with non-compartmental model.
# IBD in mice = test: Efficacy on IBD in mice (DSS-induced); assay type: in vivo, C57BL/6 mice; conditions: for CL (colon length) / CL/CW/BW / CW (colon weight) / DAI / body weight / inflammatory cell infiltration score (histopathological examination of colon tissues) / tissue injury score (histopathological examination of colon tissues): compared with G2 model group; for Colon length CL / Colon weight CW: day 0 to day 9, necropsy day 10
# Experimental: The mice in G2 to G6 were given 2% DSS aqueous solution on day 0 to day 6, normal water on […], vehicle/positive/test substance on day 0 to day 9, and euthanized on day 10 for necropsy. Colon weight (CW) and colon length (CL) were measured and colon tissues […] were subjected to histopathological examination.
# [2] = tested on: mouse IPF prevention model; test: Efficacy test on mouse IPF prevention model (Bleomycin-induced); assay type: in vivo, mice; conditions: mean, oral gavage, 21 consecutive days
# Experimental: Male mice were adaptively fed for 1 to 2 weeks and after reaching the standard weight (25 g), the IPF model (idiopathic pulmonary fibrosis model) was induced with a certain dose of Bleomycin. On the day of modeling, the animals were randomly divided into a model group and an administration group according to their weight, in which the administration groups were administered Nintedanib (60 mg/kg, once a day (qd)) and compound I-3B obtained in Example 1 (2.5 mg/kg, twice a day (bid)) by oral gavage for 21 consecutive days while the vehicle control group was administered blank vehicle. During the administration period, the animals were weighed every 3 days. At the end of the last day of administration, the animals were euthanized. The lungs were removed from the thyroid cartilage (without perfusion), slowly perfused with 10% formalin until both lungs were filled, and fixed in 10% formalin 5 to 10 times the volume of the tissues after the trachea was ligated. The left lung tissues were embedded in paraffin wax, sectioned, and stained with HE and Masson Trichrome. The sections were subjected to panoramic scanning using a Hamamatsu NanoZoomer Digital Pathology (S210) slide scanner for pathological analysis.
# 15-PGDH = target: T1, 15-PGDH (Homo sapiens, UniProt P15428); test: 15-PGDH enzyme inhibition assay (fluorescence, NAD+/PGE2); assay type: biochemical; conditions: 15-PGDH inhibition
# T1 construct: purchased R&D Systems 5660-DH-010
# T1 sequence (P15428 1-266): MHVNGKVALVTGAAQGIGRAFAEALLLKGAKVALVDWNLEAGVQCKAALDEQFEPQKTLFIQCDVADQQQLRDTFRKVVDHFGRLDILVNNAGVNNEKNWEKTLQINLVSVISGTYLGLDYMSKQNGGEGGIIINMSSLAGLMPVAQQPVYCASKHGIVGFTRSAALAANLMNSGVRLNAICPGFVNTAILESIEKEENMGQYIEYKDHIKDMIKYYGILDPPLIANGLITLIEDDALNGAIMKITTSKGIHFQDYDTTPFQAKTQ
# Experimental: 15-PGDH (R&D Systems, Cat. No. 5660-DH-010) was prepared to twice the final concentration, i.e., 30 nM, using Assay Buffer (50 mM Tris-HCl, pH 7.5, 0.01% Tween 20 by volume). 15-PGDH was then added to a 384-well white plate (Cisbio Bioassays, Cat. No. 66PL384025) at 8 µL/well. Negative control wells (with Assay Buffer only and without enzyme) were set. The compound was then prepared to 4 times the final concentration using Assay Buffer, i.e., diluted 3-fold to 10 concentrations starting from 4000 nM. The compound was added to the above white plate at 4 µL/well, mixed well, centrifuged at 1000 rpm for 1 minute, and incubated at 25°C for 10 minutes. Both positive control wells (with 15-PGDH only) and negative control wells (without 15-PGDH) were set. A mixture of NAD^+ (Select, Cat. No. S2518) and PGE2 (R&D Systems, Cat. No.:2296110) was then prepared using Assay Buffer. NAD^+ and PGE2 were prepared to four times their final concentrations, i.e., 2 mM and 0.12 mM, respectively, using Assay Buffer. The mixture was then added to the above white plate at 4 µL/well, mixed well, centrifuged at 1000 rpm for 1 minute, and incubated at 25°C for 30 minutes for the reaction. The fluorescence was measured at an excitation wavelength of 340 nm and an emission wavelength of 485 nm using a TECAN SPARK 20M microplate reader. The IC50 value was calculated using four-parameter fitting with GraphPad Prism 8.0.
# [3] = tested on: mouse IPF treatment model; test: Efficacy test on mouse IPF treatment model (Bleomycin-induced); assay type: in vivo, mice; conditions: mean, oral gavage, 14 consecutive days from day 7
# Experimental: Male mice were adaptively fed for 1 to 2 weeks and after reaching the standard weight (25 g), the IPF model (idiopathic pulmonary fibrosis model) was induced with a certain dose of Bleomycin. On the day of modeling, the animals were randomly divided into a model group and an administration group according to their weight, in which the administration groups were administered Nintedanib (60 mg/kg, qd), low-dose compound I-3B obtained in Example 1 (1 mg/kg, bid), and high-dose compound I-3B obtained in Example 1 (2.5 mg/kg, bid) by oral gavage for 14 consecutive days starting from day 7 while the vehicle control group was administered blank vehicle. During the administration period, the animals were weighed twice a week. At the end of the last day of administration, the animals were euthanized. The lungs were removed from the thyroid cartilage (without perfusion), slowly perfused with 10% formalin until both lungs were filled, and fixed in 10% formalin 5 to 10 times the volume of the tissues after the trachea was ligated. The left lung tissues were embedded in paraffin wax, sectioned, and stained with HE and Masson Trichrome. The sections were subjected to panoramic scanning using a Hamamatsu NanoZoomer Digital Pathology (S210) slide scanner for pathological analysis.
compound,measurement,setting,value
"Cn1nc2cc(N3C[C@H]4C[C@H]4c4cc(C(=O)N5CCC(F)(F)CC5)cnc43)ccn2c1=O (single isomer, unassigned) [compound I-3B]",AUC(0-t),[1],33200 ng·h/mL
same,Cmax,[1],4480 ng/mL
same,IBD symptoms and tissue injury in mice,"IBD in mice; 2.5 mg/kg and 5 mg/kg, efficacy better than that of the positive control",significantly improve
same,CL (colon length),"IBD in mice; G4, 2.5 mg/kg-bid",significant increase
same,CL/CW/BW,"IBD in mice; G4, 2.5 mg/kg-bid",significant decrease
same,CW (colon weight),"IBD in mice; G4, 2.5 mg/kg-bid",significant decrease
same,DAI,"IBD in mice; G4, 2.5 mg/kg-bid",significant decrease
same,body weight,"IBD in mice; G4, 2.5 mg/kg-bid",increase
same,inflammatory cell infiltration score (histopathological examination of colon tissues),"IBD in mice; G4, 2.5 mg/kg-bid",significant decrease
same,tissue injury score (histopathological examination of colon tissues),"IBD in mice; G4, 2.5 mg/kg-bid",significant decrease
same,CL (colon length),"IBD in mice; G5, 5 mg/kg-bid",significant increase
same,CL/CW/BW,"IBD in mice; G5, 5 mg/kg-bid",significant decrease
same,CW (colon weight),"IBD in mice; G5, 5 mg/kg-bid",significant decrease
same,DAI,"IBD in mice; G5, 5 mg/kg-bid",significant decrease
same,body weight,"IBD in mice; G5, 5 mg/kg-bid",significant increase
same,inflammatory cell infiltration score (histopathological examination of colon tissues),"IBD in mice; G5, 5 mg/kg-bid",significant decrease
same,tissue injury score (histopathological examination of colon tissues),"IBD in mice; G5, 5 mg/kg-bid",significant decrease
same,Colon length CL,IBD in mice; high-dose group (5 mg/kg),6.50 cm
same,Colon weight CW,IBD in mice; high-dose group (5 mg/kg),0.16 g
same,Colon length CL,IBD in mice; low-dose group (2.5 mg/kg),6.67 cm
same,Colon weight CW,IBD in mice; low-dose group (2.5 mg/kg),0.17 g
same,Total pulmonary fibrosis score,[2]; compound I-3B 2.5 mg/kg bid,3.34
same,IC50,15-PGDH,3.58 nM
same,Total pulmonary fibrosis score,[3]; high-dose 2.5 mg/kg bid,2.6
same,Total pulmonary fibrosis score,[3]; low-dose 1 mg/kg bid,2.74
"COC(=O)c1ccc2c(c1)NC(=O)/C2=C(\Nc1ccc(N(C)C(=O)CN2CCN(C)CC2)cc1)c1ccccc1 [Nintedanib, reference compound]",Total pulmonary fibrosis score,[2]; Nintedanib 60 mg/kg qd,3.39
same,Total pulmonary fibrosis score,[3]; Nintedanib 60 mg/kg qd,2.84
